The values that follow are results of earlier work, collected in US20090221469A1, “USE OF SOY KEFIR POWDER FOR REDUCING PAIN, BLOOD PRESSURE AND INFLAMMATION” (KCLM RESEARCH IN NUTRITION INC., priority 2006, published 2009).

Data set [1] concerns patients with neuralgia or moderate to severe nonmalignant pain. The conditions noted are these: treatment of neuralgia (Stacey et al., 2004).

In the case of `NCC1(CC(=O)O)CCCCC1` [gabapentin], the “SF-36 improvement of mean scores for bodily pain” value in data set [1] was 9.2 points.
With isoflavones, the half-lives is 4 to 8 h.
